Measurements from US20100144737A1, “METHODS FOR INHIBITING T HELPER CELL DIFFERENTIATION” (FibroGen, Inc., priority 2008, published 2010).

Tests used:
naïve T helper cells = test: Th1 cell differentiation: IFN-γ secretion after second and third TCR stimulation following washout; format: cell-based, human
Description: The effectiveness of compounds of the present invention at reducing Th1 differentiation was examined as follows. Th1 differentiation was induced by culturing anti-CD3 stimulated T cells in the presence of exogenous IL-12. Human cord blood naive T helper cells (AllCells LLC, Emeryville, Calif.) were stimulated (i.e., T cell receptor (TCR) stimulation) by seeding into 96-well culture dishes coated with 5 μg/ml anti-CD3 antibody (clone UCHT1, R&D Systems, Minneapolis, Minn.), and 5 μg/ml anti-CD28 antibody (clone ANC28.1/D10, Ancell Corporation, Bayport, Minn.), and cultured at 37° C., 5% CO2 in RPMI-1640 (Mediatech Inc., Hemdon, Va.) containing 1% FBS, 1 U/ml penicillin-1 μg/ml streptomycin (Invitrogen Corporation, Carlsbad, Calif.), and 50 U/ml IL-2 (Roche Diagnostics Corporation, Indianapolis, Ind.). At time of seeding, cells were cultured with media alone or with media containing 2 ng/ml IL-12 and 10 μg/ml anti-IL-4 to induce Th1 cell differentiation. […]
The cells were then collected, washed twice with RPMI-1640 media containing 1% FBS, and counted before equal numbers of cells per well were re-stimulated (second T cell receptor (TCR) stimulation following washout of all prior treatments) by re-seeding the cells into 96-well culture dishes coated with 5 μg/ml anti-CD3 antibody and 5 μg/ml anti-CD28 antibody. […] After 24 hours the conditioned media from the cells was collected and analyzed for IFN-γ levels using a MS2400 Tissue Culture Kit (MesoScale Technologies, Gaithersburg, Md.) according to the manufacturer's instructions.
Thirteen days after the second TCR stimulation described above, the cells were collected, washed twice with RPMI-1640 media containing 1% FBS, and counted before equal numbers of cells per well were stimulated a third time (third TCR stimulation) by re-seeding into 96-well culture dishes coated with 5 μg/ml anti-CD3 antibody and 5 μg/ml anti-CD28 antibody. […]
In another series of experiments, the effectiveness of compounds of the present invention at reducing Th1 differentiation was determined. […]

[1] = system: activated T cells (PMBCs); test: IFN-γ and TNF-α levels ex vivo following T cell activation in vivo (peptidoglycan-polysaccharide polymer injection); design: species or system Lewis rats; conditions: 40 mg/kg oral gavage, days 28-44; PMBCs isolated day 44, anti-CD3, 72 h, ELISA
Description: The effect of methods and compounds of the present invention on INF-γ and TNF-α expression following in vivo activation was examined as follows. In these experiments, in vivo T cell activation was first induced by eliciting an inflammatory reaction in rats by injection of peptidoglycan-polysaccharide polymers. An exemplary compound of the present invention was then administered to the animals. T cells were then isolated from the blood of the animals and analyzed ex vivo for IFN-γ and TNF-α secretion. Female Lewis rats (150-200 gm; Harlan, Indianapolis, Ind.) were injected intra-peritoneal with peptidoglycan-polysaccharide polymers (15 μg/gm body weight, Lee Laboratories, Grayson, Ga.). Animals were administered Compound A (40 mg/kg) via oral gavage on days 28, 30, 32, 35, 37, 39, 42, and 44 following peptidoglycan-polysaccharide polymer injection. Peripheral blood mononuclear cells (PMBCs) were isolated from the blood of the animals by Ficol gradient (BD Vacutainer CPT tubes) on day 44. Equal numbers of PMBCs (50,000 cells/well) were plated on culture dishes coated with anti-CD3 antibodies in RPMI-1640 media containing 10% serum, and the cells were cultured for 72 h. Supernatants from the cell cultures were tested for IFN-γ and TNF-α levels using commercially-available ELISA assays (R&D).

## Cc1nc(C(=O)NCC(=O)O)c(O)c2ccc(Oc3ccccc3)cc12 [Compound A, [(4-Hydroxy-1-methyl-7-phenoxy-isoquinoline-3-carbonyl)-amino]-acetic acid]
naïve T helper cells; compound present only during first TCR stimulation (seven days) with IL-12, 24 hours after re-stimulation
  IFN-γ secretion following the second TCR stimulation: reduced IFN-γ secretion
naïve T helper cells; compound present only during first TCR stimulation with IL-12, thirteen days after the second stimulation, 24 hours
  IFN-γ secretion after a third TCR stimulation: decreased IFN-γ secretion
[1]
  IFN-γ secretion from the activated T cells, measured ex vivo: effective at decreasing
  TNF-α secretion from the activated T cells, measured ex vivo: effective at decreasing
